Results on one compound are retold here after patent US20120321584A1, “PROCESSES FOR PREPARING AMINE SALTS OF KMUP-3 AND USE THEREOF” (KAOHSIUNG MEDICAL UNIVERSITY, priority 2011, published 2012).

SMILES strings stand for the structures.

For assay [1], the system named is RhoA. Nature of the assay: RhoA expression in electrically-stimulated left atria, Western blotting. The conditions noted are these: KMUP-3 0.1-10 μM. It counts as cell-based, guinea-pig. The procedure:
(§1) Protein extraction and Western blotting analysis. Briefly, after incubation with test agents in an organ bath, isolated beating atrium was frozen and pulverized to a fine powder at the temperature of liquid nitrogen. Atrium powders were then homogenized in protein extraction reagent (Pierce Biotechnology, Inc., Rockford, Ill.) by sonication. The samples were sonicated 10 sec three times and centrifuged at 13,000 rpm at 4° C. for 30 min. The protein concentrations of supernatants were determined by using bovine serum albumin as the standard. The cell extracts were then boiled in a ratio of 4:1 with sample buffer (Tris 100 mM, pH 6.8; glycerol 20%, Sodium dodecyl sulfate (SDS) 4% and bromophenol blue 0.2%). Electrophoresis was performed using 10% SDS-PAGE and transferred to nitrocellulose membranes (Millipore Corp., Billerica, Mass.). […] The intensity of the bands was measured by densitometry. eNOS or phosphorylated eNOS were extracted from cell culture of neonatal myocytes, PA ring and aortic ring (2-3 mm) of rats and measured by Western blotting analysis.
(§2) PK, ROCKII and CIP-17 expression and pretreatment of beating left atrium. To examine whether KMUP-3 or KMUP-3 amine salt affects the protein expression in beating atrium, PKA, ROCKII, PKG and phosphorylated CIP-17 was determined by Western blotting, respectively. […]
For orientation: A western blot detects proteins with antibodies after separation by electrophoresis.

Assay [2] concerns ROCKII. Nature of the assay: ROCKII expression in electrically-stimulated left atria, Western blotting. It counts as cell-based, guinea-pig. The procedure:
Protein extraction and Western blotting analysis. Briefly, after incubation with test agents in an organ bath, isolated beating atrium was frozen and pulverized to a fine powder at the temperature of liquid nitrogen. Atrium powders were then homogenized in protein extraction reagent (Pierce Biotechnology, Inc., Rockford, Ill.) by sonication. The samples were sonicated 10 sec three times and centrifuged at 13,000 rpm at 4° C. for 30 min. The protein concentrations of supernatants were determined by using bovine serum albumin as the standard. The cell extracts were then boiled in a ratio of 4:1 with sample buffer (Tris 100 mM, pH 6.8; glycerol 20%, Sodium dodecyl sulfate (SDS) 4% and bromophenol blue 0.2%). Electrophoresis was performed using 10% SDS-PAGE and transferred to nitrocellulose membranes (Millipore Corp., Billerica, Mass.). The membrane was blocked with Tris-buffered saline (TBS; 20 mM Tris and 137 mM NaCl, pH 7.6) containing 0.1% Tween 20 (TTBS) and 5% nonfat milk at room temperature for 1 h, washed with TTBS, and then incubated overnight at 4° C. in the appropriate primary antibody for PKARI, RhoA, ROCKII, p-CIP-17, CPI-17 and PKG1α1β. The membranes were washed in TTBS before being incubated with horseradish peroxidase-conjugated antibody against mouse, goat, or rabbit IgG for 1 hr. Membranes were then washed in TTBS and developed with the enhanced chemiluminescence for the detection of the specific antigen. The intensity of the bands was measured by densitometry. eNOS or phosphorylated eNOS were extracted from cell culture of neonatal myocytes, PA ring and aortic ring (2-3 mm) of rats and measured by Western blotting analysis.
as §2

Assay [3] deals with PKCα. Nature of the assay: PKCα translocation of beating left atrium. The conditions noted are these: KMUP-3 1 μM, left atrium cells. It is filed as cell-based, guinea-pig. The procedure:
To determine the effect of KMUP-3 or KMUP-3 amine salt on PKCa translocation, isolated left beating atrium was incubated with KMUP-3 or KMUP-3 amine salt for 30 minutes (0.1-10 μM). In brief, frozen left atrium was pulverized to a fine powder at the temperature of liquid nitrogen for preparation of cytosolic and membrane fractions. Isolated left atrium tissues were then homogenized by a sonicator (XL-2020, Heat Systems Ultrasonic, Plainview, N.Y., USA) at 4 in 1 ml of homogenization buffer containing 20 mM Tris-HCl (pH 7.5), 1 mM dithiothreitol (DTT), 5 mM EGTA, 2 mM EDTA, 0.5 mM PMSF, 20 μM leupeptin and 20 μM aprotinin. The cytosol fractions were obtained by collecting the supernatants after centrifuging the cells at 100,000×g for 45 minutes at 4. The pellets were resonicated in the homogenizing buffer with 1% Triton X-100, centrifuged again at 100,000×g for 45 minutes at 4, and the supernatants collected as membrane fractions. The extracts for cytosol and membrane fractions were denatured by heating at for 10 minutes in sampling buffer, and an aliquot containing 20 μg of total protein was subjected to a 10% SDS-polyacrylamide gel electrophoresis. […] Protein was detected with horseradish peroxidase (HRP) conjugated secondary antibody (BD Transduction Laboratories). […] The immunoreactive bands were detected by chemiluminescence (ECL) reagents (PerkinElmer Life Sciences, Inc).

Assay [4] concerns eNOS. As to the kind of experiment: eNOS expression in neonatal myocytes, Western blotting. It is filed as cell-based, rat. Particulars: neonatal rat cardiomyocytes. The procedure: (§3) eNOS/p-NOS and cAMP/cGMP in neonatal myocytes. To determine the role of the NO/cGMP-pathway in heart, neonatal rat myocyte protein was extracted followed by Western blotting to measure the expression of eNOS, phosphorylated eNOS (p-eNOS), cAMP, and cGMP (FIG. 14 A-14 B and FIG. 15 A-15 B). KMUP-3 increased eNOS and p-eNOS in neonatal rat cardiomyocytes and the effect was reduced by L-NAME (100 μM)-pretreatment (FIG. 14A and FIG. 14B). KMUP-3 increased both cAMP and cGMP.
as §1, with “standard.” for “standard. The cell extracts were then boiled in a ratio of 4:1 with sample buffer (Tris 100 mM, pH 6.8; glycerol 20%, Sodium dodecyl sulfate (SDS) 4% and bromophenol blue 0.2%). Electrophoresis was performed using 10% SDS-PAGE and transferred to nitrocellulose membranes (Millipore Corp., Billerica, Mass.).”

Assay [5] has as its system cGMP. As to the kind of experiment: cGMP in neonatal myocytes. It counts as cell-based, rat. The procedure:
as §3

Assay [6] concerns RhoA. As to the kind of experiment: RhoA activation of neonatal myocytes, affinity precipitation assay. It counts as cell-based, rat. The procedure: RhoA activation was determined using an affinity precipitation assay, which binds only the active GTP-bound form of Rho. In brief, sub-confluent neonatal rat myocytes were grown to approximately 85-90% confluence, cells were exposed to KMUP-3 or KMUP-3 amine salt with 10% FBS for 90 min at 37 before addition of lysis buffer (25 mM HEPES, pH 7.5, 150 mM NaCl, 1% Igepal CA-630, 10 mM MgCl2, 1 mM EDTA and 10% glycerol, 1 Ag/ml aprotinin, 10 Ag/ml leupeptin and 1 mmol/l […]) for 15 min at 4, cell lysates were clarified by centrifugation at 13000 g at 4 for 10 min, and equal volume of lysates were incubated with agarose conjugated rhotekin-RBD for 45 min at 4, then washed three time with lysis buffer. Agarose beads were boiled in SDS-PAGE sample buffer to release active RhoA in samples were resolved on a 12% polyacrylamide gel followed by immunoblotting with anti-Rho A (clone 55).

For assay [7], the system named is ROCKII. As to the kind of experiment: ROCKII expression in aorta and pulmonary artery rings, Western blotting. It is filed as cell-based, rat. The conditions noted are these: aorta and pulmonary artery (PA) ring. The procedure:
(§4) ROCKII expression and vascular resistance. To determine whether KMUP-3's ROCKII activity increased vascular resistance, aorta and pulmonary artery (PA) ring protein was extracted followed by Western blotting to measure the expression ROCKII and eNOS.
as §1

Assay [8] relates to eNOS. As to the kind of experiment: eNOS expression in aorta and pulmonary artery rings, Western blotting. It is filed as cell-based, rat. Particulars: aorta and pulmonary artery (PA) ring. On the procedure: as §4, §1
In assay [9] the test system is electrically-stimulated left atria. Nature of the assay: Electrically-stimulated beating left atrium, organ bath. It is filed as cell-based, guinea-pig. Particulars: 0.1~30 μM, electrical stimulation 1 Hz.

On to `Cn1c(=O)c2c(ncn2CCN2CCN(c3ccc([N+](=O)[O-])cc3)CC2)n(C)c1=O` [KMUP-3, 7-[2-[4-(4-nitrobenzene)piperazinyl]ethyl]-1,3-dimethylxanthine], for which, in [1], the RhoA expression entry is reported as “significantly increased”. Further, the ROCKII expression entry in assay [2] (FIG. 13A, concentration not given) is “significantly increased”. Further, the ROCKII expression result in assay [2] (KMUP-3 0.1-10 μM) is on record as “significantly increased”. Besides, the “Translocation of PKCα from cytosol to membrane” value in assay [3] was “significantly increased”. Besides, the eNOS expression result in [4] is “increased”. In [5], the cGMP entry is recorded as “increased” and the “cGMP increase compared with cAMP increase” value was “increased more than the former”. For the same compound, in assay [6], the “Rho A activation (active GTP-bound form)” value is reported as “increased”. Also, the “Vascular ROCKII expression” value in assay [7] was “did not increase”. In assay [8], the “Vascular eNOS expression” value is “did increase”. For the same compound, in assay [9], the Left atrium contractility entry is “concentration-dependently increased”.
